These are literature values, as cited in patent US20240237652A1, “Biocidal Composition and Method” (ARXADA, LLC, priority 2021, published 2024).

For series [1] the following is noted: neutral pH.
For series [2], the system named is bacteria, fungi, and yeast.

For Zinc pyrithione [ZPT], the solubility in water in series [1] is given as 8 ppm.
In the case of `O=c1[nH]sc2ccccc12` [BIT, 1,2-benzisothiazolin-3-one], the “amount required for a reliable and quick biocidal activity” value in series [2] was no more than 500 ppm.
